Tests used:
human NHE3 = target: T1, human NHE3 (Homo sapiens, UniProt P48764); experiment: Cell-based assay of NHE-3 activity (human NHE3 inhibition assay); design: expressed in transfected cells; host or cells: Opossum kidney (OK) cells (ATCC), electroporated; conditions: OK cells with human NHE-3 gene, BCECF pH recovery, 0-30 μM test compound; for IC50: read-out: Human NHE3 pIC50 (converted)
T1 sequence (P48764 26-834): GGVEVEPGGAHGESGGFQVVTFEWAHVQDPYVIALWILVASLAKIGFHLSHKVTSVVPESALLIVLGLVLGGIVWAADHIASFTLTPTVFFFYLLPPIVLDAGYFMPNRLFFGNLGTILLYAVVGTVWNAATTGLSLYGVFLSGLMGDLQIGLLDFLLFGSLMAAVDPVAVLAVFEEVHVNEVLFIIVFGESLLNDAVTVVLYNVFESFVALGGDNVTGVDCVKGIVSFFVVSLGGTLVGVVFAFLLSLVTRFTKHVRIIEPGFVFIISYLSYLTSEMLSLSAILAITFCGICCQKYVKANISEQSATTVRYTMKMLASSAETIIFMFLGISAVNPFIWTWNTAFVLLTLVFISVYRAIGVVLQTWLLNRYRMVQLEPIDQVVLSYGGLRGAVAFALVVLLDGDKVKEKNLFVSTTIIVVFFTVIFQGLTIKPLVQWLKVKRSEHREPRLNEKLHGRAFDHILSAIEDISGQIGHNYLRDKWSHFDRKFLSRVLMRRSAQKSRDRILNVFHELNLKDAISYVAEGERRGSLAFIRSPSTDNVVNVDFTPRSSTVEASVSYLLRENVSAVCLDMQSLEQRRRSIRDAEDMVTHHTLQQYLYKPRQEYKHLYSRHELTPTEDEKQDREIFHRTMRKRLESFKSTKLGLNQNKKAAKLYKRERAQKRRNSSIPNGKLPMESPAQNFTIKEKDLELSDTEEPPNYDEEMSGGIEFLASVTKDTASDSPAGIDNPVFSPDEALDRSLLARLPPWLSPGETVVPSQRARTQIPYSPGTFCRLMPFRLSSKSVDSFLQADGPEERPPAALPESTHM
Protocol: Rat or human NHE-3-mediated Na^+-dependent H^+ antiport was measured using a modification of the pH sensitive dye method originally reported by Paradiso (Proc. Natl. Acad. Sci. USA. (1984) 81(23): 7436-7440). Opossum kidney (OK) cells were obtained from the ATCC and propagated per their instructions. The rat NHE-3 gene (GenBank M85300) or the human NHE-3 gene (GenBank NM_004174.1) was introduced into OK cells via electroporation, and cells were seeded into 96 well plates and grown overnight. Medium was aspirated from the wells, cells were washed twice with NaCl-HEPES buffer (100 mM NaCl, 50 mM HEPES, 10 mM glucose, 5 mM KCl, 2 mM CaCl2, 1 mM MgCl2, pH 7.4), then incubated for 30 min at room temperature with NH4Cl-HEPES buffer (20 mM NH4Cl, 80 mM NaCl, 50 mM HEPES, 5 mM KCl, 2 mM CaCl2, 1 mM MgCl2, pH 7.4) containing 5 μM bis(acetoxymethyl) 3,3′-(3′,6′-bis(acetoxymethoxy)-5-((acetoxymethoxy)carbonyl)-3-oxo-3H-spiro[isobenzofuran-1,9′-xanthene]-2′,7′-diyl)dipropanoate (BCECF-AM). Cells were washed twice with Ammonium free, Na^+-free HEPES (100 mM choline, 50 mM HEPES, 10 mM glucose, 5 mM KCl, 2 mM CaCl2, 1 mM MgCl2, pH 7.4) and incubated in the same buffer for 10 minutes at room temperature to lower intracellular pH. […] Initial rates were plotted as the average 2 or more replicates, and pIC50 values were estimated using GraphPad Prism.

[1] = tested on: absorption of sodium from the intestinal lumen; experiment: Inhibition of intestinal sodium absorption: rat urinary sodium and fecal form 16 h post-dose; format: in vivo, Sprague-Dawley rats; conditions: for response vs control in vivo at 3 mg/kg / response vs control in vivo at 10 mg/kg: urine 16 h post-dose, read-out: uNa Result, uNa (% of vehicle); for FFS (fecal form score): 16 h post-dose, scale 1-5, group average
Protocol: Urinary sodium concentration and fecal form were measured to assess the ability of selected example compounds to inhibit the absorption of sodium from the intestinal lumen. Eight-week old Sprague-Dawley rats were purchased from Charles River Laboratories (Hollister, Calif.), were housed 2 per cage, and acclimated for at least 3 days before study initiation. Animals were fed Harlan Teklad Global 2018 rodent chow (Indianapolis, Ind.) and water ad libitum throughout the study and maintained in a standard light/dark cycle of 6 AM to 6 PM. On the day of the study, between 4 PM and 5 PM, a group of rats (n=6) were dosed via oral gavage with test compound or vehicle (water) at a volume of 10 mL/kg. After dose administration animals were placed in individual metabolic cages where they were also fed the same chow in meal form and watered ad libitum. At 16 h post-dose, the urine samples were collected and fecal form was assessed by two independent observations. Fecal forms were scored according to a common scale associated with increasing fecal water to the wettest observation in the cage's collection funnel (1, normal pellet; 2, pellet adhering to sides of collection funnel due to moisture; 3, loss of normal pellet shape; 4, complete loss of shape with a blotting pattern; 5, liquid fecal streams evident). A rat's fecal form score (FFS) was determined by averaging both observational scores for all rats within a group (n=6). The vehicle group average was 1. For urine samples, the volumes were determined gravimetrically and centrifuged at 3,600×g. The supernatants were diluted 100-fold in deionized Milli-Q water then filtered through a 0.2 μm GHP Pall AcroPrep filter plate (Pall Life Sciences, Ann Arbor, Mich.) prior to analysis by ion chromatography. Ten microliters of each filtered extract was injected onto a Dionex ICS-3000 ion chromatograph system (Dionex, Sunnyvale, Calif.). Cations were separated by an isocratic method using 25 mM methanesulfonic acid as the eluent on an IonPac CS12A 2 mm i.d.×250 mm, 8 μm particle size cation exchange column (Dionex). Sodium was quantified using standards prepared from a cation standard mix containing Li^+, Na^+, NH4^+, K^+, Mg^2+, and Ca^2+ (Dionex). The mean mass of sodium urinated for every group in the 16 h period was determined with the vehicle group usually urinating approximately 21 mg sodium. The urine Na (uNa) for rats in the test groups were expressed as a percentage of the vehicle mean and the means were compared to that of the vehicle group by utilizing a one-way analysis of variance coupled with a Dunnett's post hoc test.

Row | Compound | IC50 (human NHE3) | response vs control in vivo at 10 mg/kg ([1]; oral gavage 10 mg/kg) | also measured
1 | NC(CCC(=O)NCCOCCOCCOCCNS(=O)(=O)c1ccc(O[C@H]2c3ccccc3C[C@@H]2N2CCCCC2)cc1)(CCC(=O)NCCOCCOCCOCCNS(=O)(=O)c1ccc(O[C@H]2c3ccccc3C[C@@H]2N2CCCCC2)cc1)CCC(=O)NCCOCCOCCOCCNS(=O)(=O)c1ccc(O[C@H]2c3ccccc3C[C@@H]2N2CCCCC2)cc1 [Example 10, 4-amino-4-(13-oxo-1-(4-((1S,2S)-2-(piperidin-1-yl)-2,3-dihydro-1H-inden-1-yloxy)phenylsulfonamido)-3,6,9-trioxa-12-azapentadecan-15-yl)-N1,N7-bis(2-(2-(2-(2-(4-((1S,2S)-2-(piperidin-1-yl)-2,3-dihydro-1H-inden-1-yloxy)phenylsulfonamido)ethoxy)ethoxy)ethoxy)ethyl)heptanediamide] | < 100 nM |  | 
2 | CN(C)[C@H]1Cc2c(Cl)cc(Cl)cc2[C@@H]1Oc1ccc(S(=O)(=O)NCCOCCOCCNC(=O)CCC(=O)NCCOCCOCCNS(=O)(=O)c2ccc(O[C@H]3c4cc(Cl)cc(Cl)c4C[C@@H]3N(C)C)cc2)cc1 [Example 8, N1,N4-bis(2-(2-(2-(4-((1S,2S)-4,6-dichloro-2-(dimethylamino)-2,3-dihydro-1H-inden-1-yloxy)phenylsulfonamido)ethoxy)ethoxy)ethyl)succinamide] | < 100 nM |  | response vs control in vivo at 3 mg/kg ([1]; oral gavage 3 mg/kg): 35 to 75%
3 | O=C(NCCCCNC(=O)NCCOCCOCCNS(=O)(=O)c1ccc(O[C@H]2c3ccccc3C[C@@H]2N2CCCC2)cc1)NCCOCCOCCNS(=O)(=O)c1ccc(O[C@H]2c3ccccc3C[C@@H]2N2CCCC2)cc1 [Example 19] | > 10000 nM | 35 to 75% | 
4 | O=C(NCCCCNC(=O)NCCOCCOCCNS(=O)(=O)c1ccc(O[C@H]2c3cc(Cl)ccc3C[C@@H]2N2CCCCC2)cc1)NCCOCCOCCNS(=O)(=O)c1ccc(O[C@H]2c3cc(Cl)ccc3C[C@@H]2N2CCCCC2)cc1 [Example 18] | < 100 nM |  | 
5 | O=C(NCCOCCOCCNS(=O)(=O)c1ccc(O[C@H]2c3ccccc3C[C@@H]2N2CCCCC2)cc1)c1ccc(C(=O)NCCOCCOCCNS(=O)(=O)c2ccc(O[C@H]3c4ccccc4C[C@@H]3N3CCCCC3)cc2)cc1 [Example 6, N1,N4-bis(2-(2-(2-(4-((1S,2S)-2-(piperidin-1-yl)-2,3-dihydro-1H-inden-1-yloxy)phenylsulfonamido)ethoxy)ethoxy)ethyl)terephthalamide] | < 100 nM | 35 to 75% | FFS (fecal form score) ([1]; oral gavage 10 mg/kg): 1
6 | CN(C)[C@H]1Cc2c(Cl)cc(Cl)cc2[C@@H]1Oc1ccc(S(=O)(=O)NCCOCCOCCNC(=O)Nc2ccc(NC(=O)NCCOCCOCCNS(=O)(=O)c3ccc(O[C@H]4c5cc(Cl)cc(Cl)c5C[C@@H]4N(C)C)cc3)cc2)cc1 [Example 27] | < 100 nM | < 35% | FFS (fecal form score) ([1]; oral gavage 10 mg/kg): 1
7 | CN(C)[C@H]1Cc2c(Cl)cc(Cl)cc2[C@@H]1Oc1ccc(S(=O)(=O)N(C)CCOCCOCCNC(=O)NCCCCNC(=O)NCCOCCOCCN(C)S(=O)(=O)c2ccc(O[C@H]3c4cc(Cl)cc(Cl)c4C[C@@H]3N(C)C)cc2)cc1 [Example 26] | < 100 nM | 35 to 75% | FFS (fecal form score) ([1]; oral gavage 10 mg/kg): 1
8 | CN(C)[C@H]1Cc2c(Cl)cc(Cl)cc2[C@@H]1Oc1ccc(S(=O)(=O)NCCOCCOCCNC(=O)Nc2ccc(NC(=O)NCCOCCOCCNS(=O)(=O)c3ccc(O[C@H]4c5cc(Cl)cc(Cl)c5C[C@@H]4N(C)C)cc3)cc2)cc1 [Example 2, (S,S)—N,N′-(2,2′-(2,2′-(2,2′-(1,4-phenylenebis(azanediyl))bis(oxomethylene)bis(azanediyl)bis(ethane-2,1-diyl))bis(oxy)bis(ethane-2,1-diyl))bis(oxy)bis(ethane-2,1-diyl))bis(4-((1S,2S)-4,6-dichloro-2-(dimethylamino)-2,3-dihydro-1H-inden-1-yloxy)benzenesulfonamide)] |  |  | Human NHE3 pIC50 (human NHE3): C (NHE3 pIC50 >7)

More lines, main results first:

Row | IC50 (human NHE3) | Compound | response vs control in vivo at 10 mg/kg ([1]; oral gavage 10 mg/kg) | also measured
9 | < 100 nM | O=C(NCCCCNC(=O)NCCOCCOCCNC(=O)Nc1ccc(O[C@H]2c3ccccc3C[C@@H]2N2CCCCC2)cc1)NCCOCCOCCNC(=O)Nc1ccc(O[C@H]2c3ccccc3C[C@@H]2N2CCCCC2)cc1 [Example 38] |  | FFS (fecal form score) ([1]; oral gavage 3 mg/kg): 1; response vs control in vivo at 3 mg/kg ([1]; oral gavage 3 mg/kg): > 75%
10 | < 100 nM | O=C(NCCOCCOCCOCCNS(=O)(=O)c1ccc(O[C@H]2c3ccccc3C[C@@H]2N2CCCCC2)cc1)c1ccc(C(=O)NCCOCCOCCOCCNS(=O)(=O)c2ccc(O[C@H]3c4ccccc4C[C@@H]3N3CCCCC3)cc2)cc1 [Example 34] | > 75% | 
11 | < 100 nM | O=C(NCCOCCOCCNS(=O)(=O)c1ccc(O[C@H]2c3ccccc3C[C@@H]2N2CCCCC2)cc1)c1cccc(C(=O)NCCOCCOCCNS(=O)(=O)c2ccc(O[C@H]3c4ccccc4C[C@@H]3N3CCCCC3)cc2)c1 [Example 33] | 35 to 75% | 
12 | 100 to 10000 nM | N[C@@H]1CCCN([C@H]2Cc3ccccc3[C@@H]2Oc2ccc(S(=O)(=O)NCCOCCOCCNC(=O)NCCCCNC(=O)NCCOCCOCCNS(=O)(=O)c3ccc(O[C@H]4c5ccccc5C[C@@H]4N4CCC[C@@H](N)C4)cc3)cc2)C1 [Example 28] |  | 
13 | < 100 nM | O=C(NCCOCCOCCNS(=O)(=O)c1ccc(O[C@H]2c3ccccc3C[C@@H]2N2CCCCC2)cc1)[C@H](O)[C@@H](O)C(=O)NCCOCCOCCNS(=O)(=O)c1ccc(O[C@H]2c3ccccc3C[C@@H]2N2CCCCC2)cc1 [Example 32] | > 75% | 
14 | < 100 nM | O=C(NCCOCCOCCOCCNS(=O)(=O)c1ccc(O[C@H]2c3ccccc3C[C@@H]2N2CCCCC2)cc1)c1cccc(C(=O)NCCOCCOCCOCCNS(=O)(=O)c2ccc(O[C@H]3c4ccccc4C[C@@H]3N3CCCCC3)cc2)c1 [Example 35] | > 75% | 
15 | < 100 nM | O=C(NCCCCNC(=O)NCCOCCOCCNS(=O)(=O)c1ccc(O[C@H]2c3ccccc3C[C@@H]2N2CC[C@@H](O)C2)cc1)NCCOCCOCCNS(=O)(=O)c1ccc(O[C@H]2c3ccccc3C[C@@H]2N2CC[C@@H](O)C2)cc1 [Example 31] |  | 

Source: patent US10376481B2, “Compounds and methods for inhibiting NHE-mediated antiport in the treatment of disorders associated with fluid retention or salt overload and gastrointestinal tract disorders” (ARDELYX, INC, priority 2012, dated 2019)
